Patent US20130089641A1
Where two headings read alike, the source gives them in different places. One block for each molecule: values may come before it.

Key:
[1] = NaVC consumption on ultra heat treat of the formulated soymilk powder; format: physicochemical
Source text: As shown in Table (26), the formulated soymilk powder consists of NaVC (sodium vitamin C), lactic acid bacteria, saccharomycete, and maltodextrin, in which the lactic acid bacteria is NTU 101 lactic acid bacteria powder, the saccharomycete is yeast powder with vitamin B complex. Moreover, it must note that, when manufacturing the formulated soymilk powder, it must pre-add 25% NaVC in the formulated soymilk powder because there has 25% NaVC consumption when processing ultra heat treat of the formulated soymilk powder.

[2] = first experiment: in vitro digestion and dialysis of soymilk with ascorbic acid or calcium ascorbate, releasable iron; format: in vitro ADME
Source text: For improving that, a first experiment in the present invention is done, that is, to respectively add the ascorbic acid and the calcium ascorbate into the soymilk and determine the concentration of the releasable iron thereof. Please refer to following Table (1), which is a statistical table of the releasable iron concentration in the soymilk.

[3] = fifth experiment: releasable iron in soymilk with 30 ppm ferrous gluconate and VC, NaVC, KVC or CaVC additive; format: in vitro ADME; conditions: for average iron release rate / average relative release rate: soymilk with 30 ppm ferrous gluconate
[4] = soymilk with 20 ppm iron as ferrous sulfate
[5] = aqueous solution of ferrous sulfate with 100 ppm iron ions
[6] = second experiment: releasable iron in soymilk with iron salts added by concentration gradients; conditions: for initially inhibiting concentration: point where releasable iron starts to rise with additive dosage
[7] = sixth experiment: releasable iron in soymilk with 30 ppm ferrous gluconate and sodium isoascorbate additive; format: in vitro ADME; conditions: soymilk with 30 ppm ferrous gluconate
Source text: However, everyone knows that vitamin C includes a stereoisomer called isoascorbic acid, and the physical and chemical properties of the isoascorbic acid are similar to the vitamin C.

[8] = background, researches; cited from earlier work
[9] = average additive dosage of ascorbic acid ions 25 ppm
[10] = average additive dosage of ascorbic acid ions 50 ppm
[11] = average additive dosage of ascorbic acid ions 75 ppm
[12] = average additive dosage of ascorbic acid ions 100 ppm
[13] = average additive dosage of ascorbic acid ions 125 ppm
[14] = average additive dosage of ascorbic acid ions 150 ppm
[15] = average additive dosage of ascorbic acid ions 175 ppm
[16] = average additive dosage of ascorbic acid ions 200 ppm
[17] = average additive dosage of ascorbic acid ions 225 ppm
[18] = average additive dosage of ascorbic acid ions 250 ppm
[19] = average additive dosage of ascorbic acid ions 275 ppm
[20] = average additive dosage of ascorbic acid ions 300 ppm
[21] = average additive dosage of ascorbic acid ions 325 ppm
[22] = average additive dosage of ascorbic acid ions 350 ppm
[23] = average additive dosage of ascorbic acid ions 375 ppm
[24] = average additive dosage of ascorbic acid ions 400 ppm
[25] = average additive dosage of ascorbic acid ions 425 ppm
[26] = average additive dosage of ascorbic acid ions 450 ppm
[27] = average additive dosage of ascorbic acid ions 475 ppm
[28] = average additive dosage of ascorbic acid ions 500 ppm
[29] = sodium isoascorbate 28.6 mg/100 mL
[30] = sodium isoascorbate 57.1 mg/100 mL
[31] = sodium isoascorbate 85.7 mg/100 mL
[32] = sodium isoascorbate 114.3 mg/100 mL
[33] = sodium isoascorbate 142.9 mg/100 mL
[34] = sodium isoascorbate 171.4 mg/100 mL
[35] = sodium isoascorbate 200.0 mg/100 mL
[36] = sodium isoascorbate 228.6 mg/100 mL
[37] = sodium isoascorbate 257.1 mg/100 mL
[38] = sodium isoascorbate 285.7 mg/100 mL
[39] = sodium isoascorbate 314.3 mg/100 mL
[40] = sodium isoascorbate 342.9 mg/100 mL
[41] = sodium isoascorbate 371.4 mg/100 mL
[42] = sodium isoascorbate 400.0 mg/100 mL
[43] = sodium isoascorbate 428.6 mg/100 mL
[44] = sodium isoascorbate 457.1 mg/100 mL
[45] = sodium isoascorbate 485.7 mg/100 mL
[46] = sodium isoascorbate 514.3 mg/100 mL
[47] = sodium isoascorbate 542.9 mg/100 mL
[48] = sodium isoascorbate 571.4 mg/100 mL
[49] = soymilk, equivalent additive dosage 175 mg/100 mL
[50] = soymilk with 30 ppm iron as ferrous gluconate

Molecule: O=C1O[C@H]([C@@H](O)CO)C(O)=C1O [VC, ascorbic acid]
iron release rate ([2]; 75 mg/100 mL): 51.75%
relative release rate ([2]; 75 mg/100 mL): 102.7%
releasable iron ([2]; 75 mg/100 mL): 2.07 ppm
iron release rate ([2]; 175 mg/100 mL): 78.75%
relative release rate ([2]; 175 mg/100 mL): 156.28%
releasable iron ([2]; 175 mg/100 mL): 3.15 ppm

Molecule: O.O.O.O.O.O.O.O=S(=O)([O-])[O-].[Fe+2] [ferrous sulfate, iron(II) sulfate heptahydrate]
releasable iron concentration before adding the ascorbic acid iron [4]: 1.90 ppm
the most effective additive dosage for ascorbic acid iron [4]: 100 mg/100 ml
release promoting rate of iron ([4]; after/before adding the ascorbic acid iron): 389%
releasable iron concentration after adding the ascorbic acid iron ([4]; at the most effective additive dosage 100): 7.54 ppm
iron ions naturally inhibited [5]: 49.61%
iron ions released after processing by gastric and intestinal fluid [5]: 50.39%
concentration of releasable iron ([6]; additive dosage of iron 10 ppm): 1.56 ppm
concentration of releasable iron ([6]; additive dosage of iron 20 ppm): 1.76 ppm
concentration of releasable iron ([6]; additive dosage of iron 30 ppm): 2.47 ppm
concentration of releasable iron ([6]; additive dosage of iron 40 ppm): 2.62 ppm
concentration of releasable iron ([6]; additive dosage of iron 50 ppm): 2.75 ppm
concentration of releasable iron ([6]; additive dosage of iron 60 ppm): 3.27 ppm
concentration of releasable iron ([6]; additive dosage of iron 70 ppm): 3.72 ppm
initially inhibiting concentration [6]: 20 ppm

Molecule: ferrous gluconate
concentration of releasable iron ([6]; additive dosage of iron 10 ppm): 1.61 ppm
concentration of releasable iron ([6]; additive dosage of iron 20 ppm): 2.05 ppm
concentration of releasable iron ([6]; additive dosage of iron 30 ppm): 2.08 ppm
concentration of releasable iron ([6]; additive dosage of iron 40 ppm): 2.68 ppm
concentration of releasable iron ([6]; additive dosage of iron 50 ppm): 3.15 ppm
concentration of releasable iron ([6]; additive dosage of iron 60 ppm): 4.06 ppm
concentration of releasable iron ([6]; additive dosage of iron 70 ppm): 3.98 ppm
concentration of releasable iron ([6]; additive dosage of iron 75 ppm): 3.87 ppm
initially inhibiting concentration [6]: 30 ppm
releasable iron concentration before adding the ascorbic acid iron [3, 50]: 2.08 ppm
the most effective additive dosage for ascorbic acid iron [3, 50]: 50 mg/100 ml
release promoting rate of iron ([3]; soymilk with 30 ppm iron as ferrous gluconate, after/before adding the ascorbic acid iron): 458%
releasable iron concentration after adding the ascorbic acid iron ([3]; soymilk with 30 ppm iron as ferrous gluconate, at the most effective additive dosage 50): 9.53 ppm

Molecule: heme iron
average absorption rate [8]: 25%

Second part, the molecule after the results:

NaVC consumption when processing ultra heat treat [1]: 25%
Molecule: O=C1O[C@H]([C@@H](O)CO)C([O-])=C1O.[Na+] [NaVC, sodium ascorbate]

average iron release rate [3, 9]: 16.90%
average relative release rate [3, 9]: 33.55%
average iron release rate [3, 10]: 23.17%
average relative release rate [3, 10]: 45.97%
average iron release rate [3, 11]: 27.88%
average relative release rate [3, 11]: 55.33%
average iron release rate [3, 12]: 32.08%
average relative release rate [3, 12]: 63.67%
average iron release rate [3, 13]: 33.35%
average relative release rate [3, 13]: 66.18%
average iron release rate [3, 14]: 34.92%
average relative release rate [3, 14]: 69.30%
average iron release rate [3, 15]: 35.85%
average relative release rate [3, 15]: 71.14%
average iron release rate [3, 16]: 36.86%
average relative release rate [3, 16]: 73.15%
average iron release rate [3, 17]: 38.23%
average relative release rate [3, 17]: 75.86%
average iron release rate [3, 18]: 39.40%
average relative release rate [3, 18]: 78.18%
average iron release rate [3, 19]: 40.57%
average relative release rate [3, 19]: 80.51%
average iron release rate [3, 20]: 42.29%
average relative release rate [3, 20]: 83.93%
average iron release rate [3, 21]: 43.63%
average relative release rate [3, 21]: 86.59%
average iron release rate [3, 22]: 44.67%
average relative release rate [3, 22]: 88.66%
average iron release rate [3, 23]: 45.61%
average relative release rate [3, 23]: 90.52%
average iron release rate [3, 24]: 46.28%
average relative release rate [3, 24]: 91.85%
average iron release rate [3, 25]: 47.22%
average relative release rate [3, 25]: 93.72%
average iron release rate [3, 26]: 47.86%
average relative release rate [3, 26]: 94.99%
average iron release rate [3, 27]: 48.99%
average relative release rate [3, 27]: 97.23%
average iron release rate [3, 28]: 50.01%
average relative release rate [3, 28]: 99.24%
Molecule: O=C1O[C@H]([C@@H](O)CO)C(O)=C1O [ascorbic acid ions]

release promoting rate for iron compared with ascorbic acid ions ([7]; sodium isoascorbate additive): almost the same
Molecule: O=C1O[C@H]([C@H](O)CO)C(O)=C1O [isoascorbic acid ions]

iron release rate [7, 29]: 23.37%
relative release rate [7, 29]: 46.37%
releasable iron concentration [7, 29]: 7.01 ppm
iron release rate [7, 30]: 28.20%
relative release rate [7, 30]: 55.96%
releasable iron concentration [7, 30]: 8.46 ppm
iron release rate [7, 31]: 33.67%
relative release rate [7, 31]: 66.81%
releasable iron concentration [7, 31]: 10.10 ppm
iron release rate [7, 32]: 34.23%
relative release rate [7, 32]: 67.94%
releasable iron concentration [7, 32]: 10.27 ppm
iron release rate [7, 33]: 36.17%
relative release rate [7, 33]: 71.77%
releasable iron concentration [7, 33]: 10.85 ppm
iron release rate [7, 34]: 38.73%
relative release rate [7, 34]: 76.87%
releasable iron concentration [7, 34]: 11.62 ppm
iron release rate [7, 35]: 41.53%
relative release rate [7, 35]: 82.42%
releasable iron concentration [7, 35]: 12.46 ppm
iron release rate [7, 36]: 41.90%
relative release rate [7, 36]: 83.15%
releasable iron concentration [7, 36]: 12.57 ppm
iron release rate [7, 37]: 43.20%
relative release rate [7, 37]: 85.73%
releasable iron concentration [7, 37]: 12.96 ppm
iron release rate [7, 38]: 45.80%
relative release rate [7, 38]: 90.89%
releasable iron concentration [7, 38]: 13.74 ppm
iron release rate [7, 39]: 46.30%
relative release rate [7, 39]: 91.88%
releasable iron concentration [7, 39]: 13.89 ppm
iron release rate [7, 40]: 47.77%
relative release rate [7, 40]: 94.79%
releasable iron concentration [7, 40]: 14.33 ppm
iron release rate [7, 41]: 48.60%
relative release rate [7, 41]: 96.45%
releasable iron concentration [7, 41]: 14.58 ppm
iron release rate [7, 42]: 48.73%
relative release rate [7, 42]: 96.71%
releasable iron concentration [7, 42]: 14.62 ppm
iron release rate [7, 43]: 49.30%
relative release rate [7, 43]: 97.84%
releasable iron concentration [7, 43]: 14.79 ppm
iron release rate [7, 44]: 49.23%
relative release rate [7, 44]: 97.70%
releasable iron concentration [7, 44]: 14.77 ppm
iron release rate [7, 45]: 49.60%
relative release rate [7, 45]: 98.43%
releasable iron concentration [7, 45]: 14.88 ppm
iron release rate [7, 46]: 49.90%
relative release rate [7, 46]: 99.03%
releasable iron concentration [7, 46]: 14.97 ppm
iron release rate [7, 47]: 50.90%
relative release rate [7, 47]: 101.01%
releasable iron concentration [7, 47]: 15.27 ppm
iron release rate [7, 48]: 50.37%
relative release rate [7, 48]: 99.95%
releasable iron concentration [7, 48]: 15.11 ppm
Molecule: O=C1O[C@H]([C@H](O)CO)C([O-])=C1O.[Na+] [sodium isoascorbate]

iron release rate [2, 49]: 48.75%
releasable iron [2, 49]: 1.95 ppm
relative release rate ([2]; soymilk, equivalent additive dosage 175 mg/100 mL, relative to ferrous sulfate aqueous solution): 96.75%
Molecule: calcium ascorbate [CaVC]
